For the experiment, the target named is [Pyruvate dehydrogenase (acetyl-transferring)] kinase isozyme 1, mitochondrial (Homo sapiens, UniProt Q15118). The experiment in a line: Binding affinity to pyruvate dehydrogenase kinase 1 (unknown origin) incubated for 90 mins by VER-00160364 probe based fluorescence polarization assay.

Each structure is given as a SMILES string. pIC50: −log10 of the molar value.

Sequence of [Pyruvate dehydrogenase (acetyl-transferring)] kinase isozyme 1, mitochondrial (Q15118 whole entry): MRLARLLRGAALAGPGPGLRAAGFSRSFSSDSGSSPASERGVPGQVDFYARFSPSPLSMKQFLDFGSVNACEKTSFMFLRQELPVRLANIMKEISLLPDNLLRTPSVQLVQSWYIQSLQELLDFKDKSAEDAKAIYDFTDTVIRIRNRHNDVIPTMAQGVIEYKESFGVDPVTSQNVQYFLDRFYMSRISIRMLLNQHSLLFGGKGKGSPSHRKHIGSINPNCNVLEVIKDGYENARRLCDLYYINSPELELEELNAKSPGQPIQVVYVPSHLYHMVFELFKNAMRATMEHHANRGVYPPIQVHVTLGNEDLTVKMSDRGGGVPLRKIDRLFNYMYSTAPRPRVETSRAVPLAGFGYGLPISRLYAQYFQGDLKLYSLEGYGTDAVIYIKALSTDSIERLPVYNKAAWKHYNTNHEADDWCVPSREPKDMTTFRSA

With `Cc1nc(-c2ccc(N(Cc3cccnc3)C(=O)c3ccc(O)cc3O)cc2)c2ccccc2n1`, the pIC50 was 7.00.

In turn, `O=C(c1ccc(O)cc1O)N(Cc1cccnc1)c1ccc(-c2ccc(Cl)cc2Cl)cc1` showed a pIC50 of 6.00.

Regarding `CN(Cc1cccc2cccnc12)C(=O)c1ccc(N(Cc2cccnc2)C(=O)c2ccc(O)cc2O)cc1`, the pIC50 is 7.00. Against the preceding compound, the pIC50 is 1.00 log units higher.

Turning to `Cc1nccn1-c1ccc(-c2ccc(N(Cc3cccnc3)C(=O)c3ccc(O)cc3O)cc2)nn1`, the pIC50 was 7.00.

Consider `O=C(c1ccc(O)cc1O)N(Cc1cccnc1)c1ccc(-c2ccc(NC3CC3)nn2)cc1`, for which the pIC50 is 6.00.

`Nc1ccc(-c2ccc(N(Cc3cccnc3)C(=O)c3ccc(O)cc3O)cc2)nn1` showed a pIC50 of 6.00.

In turn, `O=C(c1ccc(O)cc1O)N(Cc1cccnc1)c1ccc(-c2ccc(-n3ccnc3)nn2)cc1` had a negative-log IC50 (pIC50) of 6.00.

Compound `Cc1cc2cc(F)ccc2nc1-c1ccc(N(Cc2cccnc2)C(=O)c2ccc(O)cc2O)cc1` had a negative logarithm of the IC50 (pIC50) of 7.00. Compared with the last compound, the pIC50 is 1.00 log units higher.

For `CSc1nc(-c2ccc(N(Cc3cccnc3)C(=O)c3ccc(O)cc3O)cc2)c2cc[nH]c2n1`, the pIC50 is 7.00.

Consider `N#Cc1cncnc1-c1ccc(N(Cc2cccnc2)C(=O)c2ccc(O)cc2O)cc1`, for which the negative-log IC50 (pIC50) is 7.00.

Consider `CCc1cc2ccccc2nc1-c1ccc(N(Cc2cccnc2)C(=O)c2ccc(O)cc2O)cc1`, for which the negative-log IC50 (pIC50) was 7.00.

`Cc1ncc(C)c(-c2ccc(N(Cc3cccnc3)C(=O)c3ccc(O)cc3O)cc2)n1` showed a negative-log IC50 (pIC50) of 8.00.

`COc1ccc(-c2ccc(N(Cc3cccnc3)C(=O)c3ccc(O)cc3O)cc2)c(OC)c1`: the pIC50 was 6.00.

Turning to `COCCN(C)S(=O)(=O)c1cnc(-c2ccc(N(Cc3cccnc3)C(=O)c3ccc(O)cc3O)cc2)c(C)c1`, the negative-log IC50 (pIC50) is 8.00. This pIC50 lies 2.00 log units higher than the previous one.

Compound `COc1ccc(-c2ccc(N(Cc3cccnc3)C(=O)c3ccc(O)cc3O)cc2)c(Cl)c1` gave a pIC50 of 6.00.

`COc1cc2ncnc(-c3ccc(N(Cc4cccnc4)C(=O)c4ccc(O)cc4O)cc3)c2cc1OC` had a pIC50 of 6.00.

`O=C(NCc1ccc(Cl)cc1)c1ccc(N(Cc2cccnc2)C(=O)c2ccc(O)cc2O)cc1` showed a negative logarithm of the IC50 (pIC50) of 7.00.

With `Cc1ccc(C)c(-c2ccc(N(Cc3cccnc3)C(=O)c3ccc(O)cc3O)cc2)n1`, the pIC50 was 6.00.

`Cc1cc2ccc(F)cc2nc1-c1ccc(N(Cc2cccnc2)C(=O)c2ccc(O)cc2O)cc1` gave a pIC50 of 7.00.

With `Cc1cc(S(=O)(=O)NCc2ccncc2)cnc1-c1ccc(N(Cc2cccnc2)C(=O)c2ccc(O)cc2O)cc1`, the negative logarithm of the IC50 (pIC50) was 8.00.

`CSc1nc2c(c(-c3ccc(N(Cc4cccnc4)C(=O)c4ccc(O)cc4O)cc3)n1)CCC2` had a pIC50 of 7.00.

Turning to `CNc1nccc(-c2ccc(N(Cc3cccnc3)C(=O)c3ccc(O)cc3O)cc2)n1`, the negative logarithm of the IC50 (pIC50) was 7.00.

For `Cc1cnc(-c2ccc(N(Cc3cccnc3)C(=O)c3ccc(O)cc3O)cc2)c(C)n1`, the negative-log IC50 (pIC50) is 8.00.

`N#Cc1cccc(-c2ccc(N(Cc3cccnc3)C(=O)c3ccc(O)cc3O)cc2)c1` had a pIC50 of 6.00.

Compound `O=C(c1ccc(O)cc1O)N(Cc1cccnc1)c1ccc(-c2ccc(N3CCCC3)nn2)cc1` gave a pIC50 of 7.00. This pIC50 lies 1.00 log units higher than the previous one.

Take `O=C(c1ccc(O)cc1O)N(Cc1cccnc1)c1ccc(-c2nc3ccc(Cl)cc3cc2CO)cc1`: the pIC50 is 8.00.

`Cc1cc(S(=O)(=O)N2CC(F)(F)C2)cnc1-c1ccc(N(Cc2cccnc2)C(=O)c2ccc(O)cc2O)cc1` showed a pIC50 of 8.00.

The compound `Cc1cc(S(=O)(=O)N2CCN(C)CC2)cnc1-c1ccc(N(Cc2cccnc2)C(=O)c2ccc(O)cc2O)cc1` had a pIC50 of 8.00.

For `Cc1cc(S(=O)(=O)NCc2ccccn2)cnc1-c1ccc(N(Cc2cccnc2)C(=O)c2ccc(O)cc2O)cc1`, the negative-log IC50 (pIC50) is 8.00.

Compound `CN(C)C(=O)c1ccc(N(Cc2cccnc2)C(=O)c2cc(Cl)c(O)cc2O)cc1` had a pIC50 of 8.00.

Consider `Cc1cncnc1-c1ccc(N(Cc2cccnc2)C(=O)c2ccc(O)cc2O)cc1`, for which the negative logarithm of the IC50 (pIC50) is 7.00.

`O=C(c1ccc(O)cc1O)N(Cc1cccnc1)c1ccc(-c2nc3ccccc3o2)cc1` showed a pIC50 of 6.00. Against the preceding compound, the pIC50 is 1.00 log units lower.

For `Cc1nccnc1-c1ccc(N(Cc2cccnc2)C(=O)c2ccc(O)cc2O)cc1`, the pIC50 is 7.00.

Compound `O=C(c1ccc(O)cc1O)N(Cc1cccnc1)c1ccc(-c2nncc3ccccc23)cc1` showed a pIC50 of 7.00.

`CCOC(=O)c1nc(C)nc(-c2ccc(N(Cc3cccnc3)C(=O)c3ccc(O)cc3O)cc2)c1C` showed a pIC50 of 7.00.

The compound `Cc1c(-c2ccc(N(Cc3cccnc3)C(=O)c3ccc(O)cc3O)cc2)ccc2[nH]ncc12` showed a negative logarithm of the IC50 (pIC50) of 6.00.

Regarding `O=C(c1ccc(O)cc1O)N(Cc1cccnc1)c1ccc(-c2ncnc3cccc(F)c23)cc1`, the negative logarithm of the IC50 (pIC50) was 8.00.

Turning to `CC(=O)N1CCN(S(=O)(=O)c2cnc(-c3ccc(N(Cc4cccnc4)C(=O)c4ccc(O)cc4O)cc3)c(C)c2)CC1`, the pIC50 is 8.00.

Turning to `COc1cnc(-c2ccc(N(Cc3cccnc3)C(=O)c3ccc(O)cc3O)cc2)cc1OC`, the pIC50 was 7.00.

Consider `CCc1nccnc1-c1ccc(N(Cc2cccnc2)C(=O)c2ccc(O)cc2O)cc1`, for which the negative logarithm of the IC50 (pIC50) was 7.00.

Consider `CC(=O)NCCNS(=O)(=O)c1cnc(-c2ccc(N(Cc3cccnc3)C(=O)c3ccc(O)cc3O)cc2)c(C)c1`, for which the pIC50 is 8.00.

`O=C(c1ccc(O)cc1O)N(Cc1cccnc1)c1ccc(-c2ncccc2CO)cc1` showed a negative-log IC50 (pIC50) of 7.00.

`Cc1cn(-c2ccc(-c3ccc(N(Cc4cccnc4)C(=O)c4ccc(O)cc4O)cc3)nn2)cn1` showed a pIC50 of 7.00.

As to `CCOc1ccc2nc(-c3ccc(N(Cc4cccnc4)C(=O)c4ccc(O)cc4O)cc3)c(C)cc2c1`, the pIC50 is 7.00.

As to `CCOC(=O)c1nc(-c2ccc(N(Cc3cccnc3)C(=O)c3ccc(O)cc3O)cc2)c2ccccc2n1`, the negative-log IC50 (pIC50) was 7.00.

`NC(=O)c1nc(-c2ccc(N(Cc3cccnc3)C(=O)c3ccc(O)cc3O)cc2)c2ccccc2n1` gave a pIC50 of 7.00.

The compound `O=C(c1ccc(O)cc1O)N(Cc1cccnc1)c1ccc(-c2nc3ccccc3cc2CO)cc1` showed a pIC50 of 7.00.

Turning to `COc1ccc(CN(C)C(=O)c2ccc(N(Cc3cccnc3)C(=O)c3cc(Cl)c(O)cc3O)cc2)cc1`, the pIC50 is 8.00.

In the case of `CN(C)C(=O)c1ccc(N(Cc2cccnc2)C(=O)c2ccc(O)cc2O)cc1`, the pIC50 was 7.00. Compared with the last compound, the pIC50 is 1.00 log units lower.

Regarding `CCNc1cc(-c2ccc(N(Cc3cccnc3)C(=O)c3ccc(O)cc3O)cc2)ncn1`, the pIC50 is 6.00.

`O=C(c1ccc(O)cc1O)N(Cc1cccnc1)c1ccc(-c2nc3ccccc3nc2C(F)(F)F)cc1` gave a negative-log IC50 (pIC50) of 7.00.

The compound `O=C(c1ccc(O)cc1O)N(Cc1cccnc1)c1ccc(-c2nc(C(F)(F)F)nc3ccccc23)cc1` had a pIC50 of 7.00.

For the compound `Cc1cc(-c2ccc(N(Cc3cccnc3)C(=O)c3ccc(O)cc3O)cc2)nnc1Cl`, the negative logarithm of the IC50 (pIC50) was 6.00.

`O=C(c1ccc(O)cc1O)N(Cc1cccnc1)c1ccc(-c2ccccc2Cl)cc1` showed a pIC50 of 6.00.

Regarding `Cc1cc2cccc(C)c2nc1-c1ccc(N(Cc2cccnc2)C(=O)c2ccc(O)cc2O)cc1`, the negative-log IC50 (pIC50) is 6.00.

The compound `Cc1cc(S(=O)(=O)N2CCCCC2)cnc1-c1ccc(N(Cc2cccnc2)C(=O)c2ccc(O)cc2O)cc1` had a negative-log IC50 (pIC50) of 8.00.

`O=C(c1ccc(O)cc1O)N(Cc1cccnc1)c1ccc(-c2cnc3ccccc3n2)cc1` gave a negative logarithm of the IC50 (pIC50) of 6.00.

As to `O=C(c1ccc(O)cc1O)N(Cc1cccnc1)c1ccc(-c2ccc(Cl)nc2)cc1`, the pIC50 is 6.00.

`O=C(c1ccc(O)cc1O)N(Cc1cccnc1)c1ccc(-c2ccncc2C(F)(F)F)cc1` gave a negative-log IC50 (pIC50) of 7.00. This pIC50 lies 1.00 log units higher than the previous one.

Turning to `Cc1cc(S(=O)(=O)N2CCOCC2)cnc1-c1ccc(N(Cc2cccnc2)C(=O)c2ccc(O)cc2O)cc1`, the pIC50 was 8.00.

With `CCCc1cncnc1-c1ccc(N(Cc2cccnc2)C(=O)c2ccc(O)cc2O)cc1`, the pIC50 was 7.00.

As to `Cc1ccc(-c2ccc(N(Cc3cccnc3)C(=O)c3ccc(O)cc3O)cc2)c(Cl)c1`, the pIC50 was 6.00. Against the preceding compound, the pIC50 is 1.00 log units lower.

For `Cc1cc(S(=O)(=O)N2CCC(F)(F)CC2)cnc1-c1ccc(N(Cc2cccnc2)C(=O)c2ccc(O)cc2O)cc1`, the pIC50 was 8.00.

In turn, `Cc1cc(S(=O)(=O)NCc2cccnc2)cnc1-c1ccc(N(Cc2cccnc2)C(=O)c2ccc(O)cc2O)cc1` showed a pIC50 of 8.00.

`CNS(=O)(=O)c1cnc(-c2ccc(N(Cc3cccnc3)C(=O)c3ccc(O)cc3O)cc2)c(C)c1` gave a pIC50 of 8.00.

`O=C(c1ccc(O)cc1O)N(Cc1cccnc1)c1ccc(-c2nc(-c3ccccc3)nc3ccccc23)cc1` had a pIC50 of 6.00. This pIC50 lies 2.00 log units lower than the previous one.

On to `Cc1cc2cc(Cl)ccc2nc1-c1ccc(N(Cc2cccnc2)C(=O)c2ccc(O)cc2O)cc1`, for which the pIC50 was 7.00. Compared with the last compound, the pIC50 is 1.00 log units higher.

In the case of `Cc1cc(-c2ccc(N(Cc3cccnc3)C(=O)c3ccc(O)cc3O)cc2)cnc1Cl`, the pIC50 was 6.00.

`COc1ccccc1-c1ccc(N(Cc2cccnc2)C(=O)c2ccc(O)cc2O)cc1` gave a pIC50 of 6.00.

In turn, `O=C(c1ccc(O)cc1O)N(Cc1cccnc1)c1ccc(-c2ccc(N3CCOCC3)nn2)cc1` had a pIC50 of 6.00.

Regarding `CNc1nnc(-c2ccc(N(Cc3cccnc3)C(=O)c3ccc(O)cc3O)cc2)c2ccccc12`, the negative-log IC50 (pIC50) was 7.00.

For the compound `O=C(c1ccc(O)cc1O)N(Cc1cccnc1)c1ccc(-c2nc(-c3ccsc3)nc3ccccc23)cc1`, the pIC50 was 6.00. This pIC50 is 1.00 log units lower than that of the compound before.

As for `O=C(c1ccc(O)cc1O)N(Cc1cccnc1)c1ccc(-c2nc3cc(Cl)ccc3o2)cc1`, the pIC50 is 6.00.

As for `CC(=O)Nc1ccc(-c2ccc(N(Cc3cccnc3)C(=O)c3ccc(O)cc3O)cc2)c(C)c1`, the pIC50 is 7.00. Compared with the last compound, the pIC50 is 1.00 log units higher.

In turn, `Cc1cc(Cl)nnc1-c1ccc(N(Cc2cccnc2)C(=O)c2ccc(O)cc2O)cc1` had a pIC50 of 8.00.

Take `O=C(c1ccc(O)cc1O)N(Cc1cccnc1)c1ccc(-c2ncnc3ccc(Cl)cc23)cc1`: the pIC50 is 7.00.

In turn, `COc1ccc2nc(-c3ccc(N(Cc4cccnc4)C(=O)c4ccc(O)cc4O)cc3)c(C)cc2c1` showed a pIC50 of 7.00.

`Cc1cc(S(=O)(=O)NCCN(C)C)cnc1-c1ccc(N(Cc2cccnc2)C(=O)c2ccc(O)cc2O)cc1` had a pIC50 of 7.00.

In turn, `Cc1c(Cl)ncc2cc(-c3ccc(N(Cc4cccnc4)C(=O)c4ccc(O)cc4O)cc3)ccc12` showed a negative-log IC50 (pIC50) of 6.00.

`Cc1cc(S(=O)(=O)NCCCC(N)=O)cnc1-c1ccc(N(Cc2cccnc2)C(=O)c2ccc(O)cc2O)cc1` showed a negative logarithm of the IC50 (pIC50) of 8.00.

`O=C(c1ccc(O)cc1O)N(Cc1cccnc1)c1ccc(-c2cc3cncnc3[nH]2)cc1` gave a pIC50 of 6.00.

The values are drawn from ChEMBL document CHEMBL3727364, “Resorcinol n-aryl amide compounds, for use as pyruvate dehydrogenase kinase inhibitors” (2015).
